Read-outs that look alike come from different tables or passages of the source.
Legend:
Format in all cases: cell-based
A549 = assay: Anti-proliferation IC50, A549; conditions: Homo sapiens
MRC-5 = assay: Anti-proliferation IC50, MRC-5; conditions: Homo sapiens, MRC5; Table 2, compounds of formula II
VERO = assay: Anti-proliferation IC50, VERO; conditions: Chlorocebus sabaeus
Hep-G2 = assay: Anti-proliferation IC50, Hep-G2; conditions: Homo sapiens, HepG2
[1] = Anti-proliferation IC50, MRC-5; conditions: human, MRC-5 cells; Table 1, compounds of formula I; NI = no inhibition up to 500 μM
[2] = Table 2, compounds of formula II, read-out: Anti-proliferation IC50 A549
[3] = Table 2, compounds of formula II, read-out: Anti-proliferation IC50 VERO
[4] = Table 2, compounds of formula II, read-out: Anti-proliferation IC50 Hep-G2
[5] = Table 1, compounds of formula I, NI = no inhibition up to 500 μM, read-out: A549 (IC50)
[6] = Table 1, compounds of formula I, NI = no inhibition up to 500 μM, read-out: VERO (IC50)
[7] = Table 1, compounds of formula I, NI = no inhibition up to 500 μM, read-out: Hep-G2 (IC50)

| Structure (SMILES) | IC50 (A549; [2]) [µM] | IC50 (MRC-5) [µM] | IC50 (VERO; [3]) [µM] | IC50 (Hep-G2; [4]) [µM] | IC50 (A549; [5]) [µM] | IC50 [1] [µM] | IC50 (VERO; [6]) [µM] | IC50 (Hep-G2; [7]) [µM] |
| --- | --- | --- | --- | --- | --- | --- | --- | --- |
| CC[C@H]1OC(=O)[C@H](C)[C@@H](O[C@H]2C[C@@](C)(OC)[C@@H](O)[C@H](C)O2)[C@H](C)[C@@H](O[C@@H]2O[C@H](C)C[C@H](N(C)CC#Cc3ccc(-n4cc(C)ccc4=O)cc3)[C@H]2O)[C@](C)(O)C[C@@H](C)CN(C)[C@H](C)[C@@H](O)[C@]1(C)O [Compound 20a] | 55.9 ± 6.4 | 23.3 ± 3.3 | 71.4 ± 6.3 | 53.4 ± 3.3 |  |  |  |  |
| CCC1OC(=O)[C@H](C)[C@H](OC2C[C@@](C)(OC)[C@@H](O)[C@H](C)O2)[C@H](C)[C@@H](OC2O[C@H](C)C[C@H](N(C)Cc3ccc(-c4cn(CCCCc5ccc(-n6cc(C)ccc6=O)cc5)nn4)cc3)[C@H]2O)[C@@](C)(OC)C[C@@H](C)C(=O)[C@H](C)[C@@H](O)[C@]1(C)O (stereo partly shown) [Compound 14c] |  |  |  |  | 10.9 ± 0.4 | 11.6 ± 0.3 | 12.4 ± 0.2 | 36.4 ± 6.6 |
| CC[C@H]1OC(=O)[C@H](C)[C@@H](O[C@H]2C[C@@](C)(OC)[C@@H](O)[C@H](C)O2)[C@H](C)[C@@H](O[C@@H]2O[C@H](C)C[C@H](N(C)CCCC#Cc3ccc(-n4cc(C)ccc4=O)cc3)[C@H]2O)[C@](C)(O)C[C@@H](C)CN(C)[C@H](C)[C@@H](O)[C@]1(C)O [Compound 20c] | 42.7 ± 8.4 | 41.7 ± 0.1 | 36.4 ± 3.8 | 45.2 ± 7.4 |  |  |  |  |
| CCC1OC(=O)[C@H](C)[C@H](OC2C[C@@](C)(OC)[C@@H](O)[C@H](C)O2)[C@H](C)[C@@H](OC2O[C@H](C)C[C@H](N(C)CCCCc3ccc(-n4cc(C)ccc4=O)cc3)[C@H]2O)[C@@](C)(OC)C[C@@H](C)C(=O)[C@H](C)[C@@H](O)[C@]1(C)O (stereo partly shown) [Compound 14a] |  |  |  |  | 16.3 ± 1.6 | 15.7 ± 2.3 | 19 ± 3.7 | 30.9 ± 1.4 |
| CC[C@H]1OC(=O)[C@H](C)[C@@H](O[C@H]2C[C@@](C)(OC)[C@@H](O)[C@H](C)O2)[C@H](C)[C@@H](O[C@@H]2O[C@H](C)C[C@H](N(C)CCC#Cc3ccc(-n4cc(C)ccc4=O)cc3)[C@H]2O)[C@](C)(O)C[C@@H](C)CN(C)[C@H](C)[C@@H](O)[C@]1(C)O [Compound 20b] | 31.2 ± 4.8 | 19.1 ± 2.6 | 28.5 ± 1.8 | 24.8 ± 1.7 |  |  |  |  |
| CCC1OC(=O)[C@H](C)[C@H](OC2C[C@@](C)(OC)[C@@H](O)[C@H](C)O2)[C@H](C)[C@@H](OC2O[C@H](C)C[C@H](N(C)CCCCC#Cc3ccc(-n4cc(C)ccc4=O)cc3)[C@H]2O)[C@@](C)(OC)C[C@@H](C)C(=O)[C@H](C)[C@@H](O)[C@]1(C)O (stereo partly shown) [Compound 19d] |  |  |  |  | 35.4 ± 2.1 | 28.9 ± 1.9 | 24.3 ± 0.1 | 32 ± 0.1 |
| CCC1OC(=O)[C@H](C)[C@H](OC2C[C@@](C)(OC)[C@@H](O)[C@H](C)O2)[C@H](C)[C@@H](OC2O[C@H](C)C[C@H](N(C)Cc3cn(CCc4ccc(-n5cc(C)ccc5=O)cc4)nn3)[C@H]2O)[C@@](C)(OC)C[C@@H](C)C(=O)[C@H](C)[C@@H](O)[C@]1(C)O (stereo partly shown) [Compound 12b] |  |  |  |  | 116 ± 4.1 | 84 ± 4.5 | 104 ± 20.3 | 122 ± 3.7 |
| CCC1OC(=O)[C@H](C)[C@H](OC2C[C@@](C)(OC)[C@@H](O)[C@H](C)O2)[C@H](C)[C@@H](OC2O[C@H](C)C[C@H](N(C)CC#Cc3ccc(-n4cc(C)ccc4=O)cc3)[C@H]2O)[C@@](C)(OC)C[C@@H](C)C(=O)[C@H](C)[C@@H](O)[C@]1(C)O (stereo partly shown) [Compound 19a] |  |  |  |  | 44.1 ± 10.8 | 82.6 ± 0.3 | 55.5 ± 2.6 | 50.7 ± 3 |
| CCC1OC(=O)[C@H](C)[C@H](OC2C[C@@](C)(OC)[C@@H](O)[C@H](C)O2)[C@H](C)[C@@H](OC2O[C@H](C)C[C@H](N(C)CCc3ccc(-n4cc(C)ccc4=O)cc3)[C@H]2O)[C@@](C)(OC)C[C@@H](C)C(=O)[C@H](C)[C@@H](O)[C@]1(C)O (stereo partly shown) [Compound 12a] |  |  |  |  | > 500 | 119 | > 500 | > 500 |
| Cc1ccc(=O)n(-c2ccccc2)c1 [Pirfenidone (Pir), Pirfenidone, reference compound] |  |  |  |  | 5410 ± 241 | 5300 ± 178 | 10788 ± 0.6 | 10900 |
| CCC1OC(=O)[C@H](C)[C@H](OC2C[C@@](C)(OC)[C@@H](O)[C@H](C)O2)[C@H](C)[C@@H](OC2O[C@H](C)C[C@H](N(C)CCCCCC#Cc3ccc(-n4cc(C)ccc4=O)cc3)[C@H]2O)[C@@](C)(OC)C[C@@H](C)C(=O)[C@H](C)[C@@H](O)[C@]1(C)O (stereo partly shown) [Compound 19e] |  |  |  |  | 23.8 ± 2.1 | 24.2 ± 0.6 | 13.2 ± 0.7 | 23.7 ± 2 |
| CC[C@H]1OC(=O)[C@H](C)[C@@H](O[C@H]2C[C@@](C)(OC)[C@@H](O)[C@H](C)O2)[C@H](C)[C@@H](O[C@@H]2O[C@H](C)C[C@H](N(C)C)[C@H]2O)[C@](C)(O)C[C@@H](C)CN(C)[C@H](C)[C@@H](O)[C@]1(C)O [Azithromycin (AZM), Azithromycin, reference compound] |  |  |  |  | 204 ± 4.5 | 127 ± 1 | 222 ± 18.1 | 85.3 ± 0.9 |
| CCC1OC(=O)[C@H](C)[C@H](OC2C[C@@](C)(OC)[C@@H](O)[C@H](C)O2)[C@H](C)[C@@H](OC2O[C@H](C)C[C@H](N(C)Cc3ccc(-n4cc(C)ccc4=O)cc3)[C@H]2O)[C@@](C)(OC)C[C@@H](C)C(=O)[C@H](C)[C@@H](O)[C@]1(C)O (stereo partly shown) [Compound 10a] |  |  |  |  | > 500 | > 500 | > 500 | > 500 |
| CCC1OC(=O)[C@H](C)[C@H](OC2C[C@@](C)(OC)[C@@H](O)[C@H](C)O2)[C@H](C)[C@@H](OC2O[C@H](C)C[C@H](N(C)Cc3ccc(-c4cn(CCc5ccc(-n6cc(C)ccc6=O)cc5)nn4)cc3)[C@H]2O)[C@@](C)(OC)C[C@@H](C)C(=O)[C@H](C)[C@@H](O)[C@]1(C)O (stereo partly shown) [Compound 12c] |  |  |  |  | 35.3 ± 1.5 | 13.1 ± 1.2 | 14.2 ± 0.3 | 28.1 ± 1.8 |
| CCC1OC(=O)[C@H](C)[C@H](OC2C[C@@](C)(OC)[C@@H](O)[C@H](C)O2)[C@H](C)[C@@H](OC2O[C@H](C)C[C@H](N(C)Cc3ccc(-c4cn(Cc5ccc(-n6cc(C)ccc6=O)cc5)nn4)cc3)[C@H]2O)[C@@](C)(OC)C[C@@H](C)C(=O)[C@H](C)[C@@H](O)[C@]1(C)O (stereo partly shown) [Compound 10c] |  |  |  |  | 11.1 ± 2.7 | 12.3 ± 1.8 | 5.1 ± 0.2 | 20.3 ± 1 |
| CC[C@@H]1OC(=O)[C@@H](C)[C@H](O[C@H]2C[C@@](C)(OC)[C@@H](O)[C@H](C)O2)[C@@H](C)[C@H](O[C@H]2O[C@@H](C)C[C@@H](N(C)C(=O)/C=C/C(=O)OC)[C@@H]2O)C(C)(O)C[C@H](C)CN(C)[C@@H](C)[C@H](O)[C@@]1(C)O (stereo partly shown) | 214 |  | 212 | 126 |  |  |  |  |
| CC[C@H]1OC(=O)[C@@H](C)[C@@H](O[C@@H]2C[C@](C)(OC)[C@H](O)[C@@H](C)O2)[C@@H](C)[C@@H](O[C@H]2O[C@@H](C)C[C@@H](N(C)C)[C@@H]2OC(=O)/C=C/C=C/c2ccc3c(c2)OCO3)[C@](C)(OC)C[C@@H](C)C(=O)[C@H](C)[C@H](O)[C@]1(C)O |  |  |  |  | 16.9 ± 0.7 | 7.8 ± 0.7 | 21 ± 2.3 | 5.6 ± 0.1 |
| CCC1OC(=O)[C@H](C)[C@H](OC2C[C@@](C)(OC)[C@@H](O)[C@H](C)O2)[C@H](C)[C@@H](OC2O[C@H](C)C[C@H](N(C)Cc3cn(Cc4ccc(-n5cc(C)ccc5=O)cc4)nn3)[C@H]2O)[C@@](C)(OC)C[C@@H](C)C(=O)[C@H](C)[C@@H](O)[C@]1(C)O (stereo partly shown) [Compound 10b] |  |  |  |  | 118 ± 28.4 | 102.6 ± 0.8 | 153 ± 19 | 116 ± 16 |
| CCC1OC(=O)[C@H](C)[C@H](OC2C[C@@](C)(OC)[C@@H](O)[C@H](C)O2)[C@H](C)[C@@H](OC2O[C@H](C)C[C@H](N(C)Cc3cn(CCCCc4ccc(-n5cc(C)ccc5=O)cc4)nn3)[C@H]2O)[C@@](C)(OC)C[C@@H](C)C(=O)[C@H](C)[C@@H](O)[C@]1(C)O (stereo partly shown) [Compound 14b] |  |  |  |  | 28.7 ± 3.4 | 32.8 ± 5.1 | 33.3 ± 1.9 | 44.8 ± 3.6 |
| O=C(O)/C=C/C=C/c1ccc2c(c1)OCO2 [Piperic acid (PPA), Piperic acid, reference compound] |  |  |  |  | > 500 | > 500 | > 500 | > 500 |
| CCC1OC(=O)[C@H](C)[C@H](OC2C[C@@](C)(OC)[C@@H](O)[C@H](C)O2)[C@H](C)[C@@H](OC2O[C@H](C)C[C@H](N(C)CCC#Cc3ccc(-n4cc(C)ccc4=O)cc3)[C@H]2O)[C@@](C)(OC)C[C@@H](C)C(=O)[C@H](C)[C@@H](O)[C@]1(C)O (stereo partly shown) [Compound 19b] |  |  |  |  | 59.9 ± 0.8 | > 500 | 130 ± 21.2 | 60.9 ± 9 |
| CCC1OC(=O)[C@H](C)[C@H](OC2C[C@@](C)(OC)[C@@H](O)[C@H](C)O2)[C@H](C)[C@@H](OC2O[C@H](C)C[C@H](N(C)CCCC#Cc3ccc(-n4cc(C)ccc4=O)cc3)[C@H]2O)[C@@](C)(OC)C[C@@H](C)C(=O)[C@H](C)[C@@H](O)[C@]1(C)O (stereo partly shown) [Compound 19c] |  |  |  |  | 58.6 ± 1.4 | 15.2 ± 0.1 | 55.5 ± 0.4 | 24 ± 1.2 |
| CC[C@H]1OC(=O)[C@H](C)[C@@H](O[C@H]2C[C@@](C)(OC)[C@@H](O)[C@H](C)O2)[C@H](C)[C@@H](O[C@@H]2O[C@H](C)C[C@H](N(C)C)[C@H]2O)[C@](C)(OC)C[C@@H](C)C(=O)[C@H](C)[C@@H](O)[C@]1(C)O [Clarithromycin (CLM), Clarithromycin, reference compound] |  |  |  |  | > 500 | 138.1 ± 1.1 | > 500 | 130 |
